According to US12152008B2, “Cyclopentaimidazolones for the treatment of cancer” (The Broad Institute, Inc., priority 2018, dated 2024):

Assays:
Type in all cases: cell-based
[1] = test system: PF0172_T2 patient-derived organoid; test: Patient-derived organoid viability screen, IC50; settings: read-out: IC50 PF 0172_T2
Description: (§1) Compounds were tested on patient-derived tumor organoids. Such organoids retain the three-dimensional structure of the tissue providing conditions that are more representative of in vivo behavior. Such organoids are described by Boj, Sylvia, et al., Cell 160: 324 (2015), hereby incorporated by reference in its entirety. Briefly, cultures of primary and metastatic pancreatic tumor specimens as patient-derived xenografts, 3D tumor organoids, and patient-derived cell lines were produced including a cohort of 21 patient-derived xenografts and 67 organoid cultures from primary and metastatic pancreatic tumor specimens. The functional dependencies of compounds in these patient-derived samples were measured on a 3D organoid and its matched 2D patient-derived cell lines. Conditions were optimized for performing high-throughput compound screening of 3D organoids, including suspension culture with Matrigel in 384-well plates, viability assessment with CellTiter-Glo 3D. […] FIG. 2A illustrates the dose dependent responses of an enantioenriched sample of Compound E1 synthesized using an enantio-purified sample of E1 in the (R,R)-configuration (70% ee) (e.g., E1(R,R)), an enantioenriched sample of E1 (“E1(S,S)”), and racemic mixtures of E1 on NCIH2405 cells (“E1”).
(§2) Table 1 gives the IC50 values (μM) of compounds having the structure of formula (I) (including E1(S,S) and E1(Rac) in patient-derived organoids and several cell lines. Compounds E1-E12 were synthesized as described above as racemates (i.e., E1(Rac)-R12(Rac), and E1(S,S) and E1(R,R) were synthesized using the (S,S)-5 reagent or (R,R)-5 reagent, respectively, as described above.

[2] = test system: PF0202 patient-derived organoid; test: Patient-derived organoid viability screen, IC50; settings: read-out: IC50 PF 0202
Description: as §1, §2

[3] = test system: PF0039 patient-derived organoid; test: Patient-derived organoid viability screen, IC50; settings: read-out: IC50 PF 0039
Description: as §1, §2

[4] = test system: patient derived organoids and cell lines; test: Organoid and cell line screen, panel (FIG. 1); settings: organoids PF0039, PF0071, PF0172-T2, PF0202, cell lines PaTu 8902, BxPC-3, NCIH2405, OV-90
Description: as §1

BxPC-3 = test: Cell line viability screen, IC50 (CellTiter-Glo 3D); settings: BxPC3 cell line
Description: as §1, §2

OV-90 = test: as above; settings: OV90 cell line
Description: as §1, §2

PaTu 8902 = test: as above; settings: PaTu 8902 cell line
Description: as §1, §2

NCIH2405 cells = test: as above; settings: read-out: IC50 NCIH 2405
Description: as §1, §2

PF0071 organoids = test: PF0071 sensitivity screen (organoid dose response); design: key: Active: the analog typically with the lower IC50 value was identified as “active”; Inactive: the analog with the higher IC50 value was identified as “inactive.”; settings: optically pure enantiomers
Description: as §1
E1(Rac), E5(Rac), and E8(Rac) were synthesized as racemic mixtures (i.e., without a chiral catalyst) and separated into six optically pure compounds.
With the absolute stereochemistry identified, the correlation between specific isomer and activity was determined for PF0071 organoids. Table 2 compares the activities of each set of racemates that were measured as compared to the designations illustrated in FIG. 2B.
The response to dose of several compounds (including a linkered analog) on PF0071 organoids were run. Enantiomers of E1, E5, and E8 were tested and compared to results with a linked compound synthesized as a racemic mixture as described above (identified in FIG. 3 as “Linked E1(Rac)”) having the structure: […]

SMILES | IC50 [1] | IC50 [2] | IC50 [3] | Effect on viability across panel [4] | IC50 (BxPC-3) | IC50 (OV-90) | IC50 (PaTu 8902) | IC50 (NCIH2405 cells) | Activity (active or inactive) (PF0071 organoids)
COC1C=CC2C1N(CC(C)C)C(=O)N2c1ccccc1 (racemic) [Compound E1] | 3.41 µM | 55.4 µM | 22.3 µM | dose-dependent effect on only a subset of organoids | > 100 µM | > 100 µM | > 100 µM | 7.41 µM | 
CC(C)CN1C(=O)N(c2ccccc2)C2C=CC(O)C21 (racemic) [E2(Rac)] | 4.05 µM | > 100 µM | 31.7 µM |  | > 100 µM | > 100 µM | > 100 µM | > 100 µM | 
COC1C=CC2C1N(C)C(=O)N2c1ccccc1 (racemic) [E3(Rac)] | 85.8 µM | > 100 µM | > 100 µM |  | > 100 µM | > 100 µM | > 100 µM | > 100 µM | 
CCOC1C=CC2C1N(CC(C)C)C(=O)N2c1ccccc1 (racemic) [E4(Rac)] | 3.4 µM | 40.2 µM | 25.8 µM |  | 96.4 µM | 76.9 µM | > 100 µM | 14.3 µM | 
COC1CCC2C1N(CC(C)C)C(=O)N2c1ccccc1 (racemic) [E5(Rac)] | 1.16 µM | 16.5 µM | 7.26 µM |  | 64.4 µM | 83.3 µM | > 100 µM | 4.11 µM | 
COC1C=CC2C1N(CC(C)C)C(=O)N2Cc1ccccc1 (racemic) [E6(Rac)] | 17.4 µM | 65.3 µM | 40.7 µM |  | > 100 µM | 96.4 µM | > 100 µM | > 100 µM | 
COC1C=CC2C1N(CC(C)C)C(=O)N2c1ccc(C#N)cc1 (racemic) [E7(Rac)] | > 100 µM | ≥ 100 µM | > 100 µM |  | > 100 µM | > 100 µM | 75.1 µM | > 100 µM | 
COC1C=CC2C1N(CC(C)C)C(=O)N2c1ccc(Cl)cc1 (racemic) [E8(Rac)] | 2.15 µM | 27.9 µM | 8.19 µM |  | 17.3 µM | 30.7 µM | 33.9 µM | 2.58 µM | 
COc1ccc(N2C(=O)N(CC(C)C)C3C(OC)C=CC32)cc1 (racemic) [E9(Rac)] | 88.6 µM | 47.1 µM | 43.5 µM |  | 56.4 µM | 65.5 µM | 76.8 µM | 58.8 µM | 
COC1C=CC2C1N(CC(C)C)C(=O)N2c1cccc(F)c1 (racemic) [E10(Rac)] | 2.22 µM | 36.9 µM | 8.14 µM |  | 66.6 µM | 83.9 µM | > 100 µM | 3.44 µM | 
COC1C=CC2C1N(CC(C)C)C(=O)N2c1ccc(F)cc1 (racemic) [E11(Rac)] | 4.08 µM | 49.5 µM | 28.2 µM |  | > 100 µM | 93.6 µM | > 100 µM | 10.2 µM | 
COC1C=CC2C1N(CC(C)C)C(=O)N2c1ccc(C)cc1 (racemic) [E12(Rac)] | 1.21 µM | 51.4 µM | 7.42 µM |  | > 100 µM | 85.9 µM | > 100 µM | 2.04 µM | 
CO[C@@H]1CC[C@@H]2[C@H]1N(CC(C)C)C(=O)N2c1ccccc1 (stereo in doubt) |  |  |  |  |  |  |  |  | Active
CO[C@H]1CC[C@H]2[C@@H]1N(CC(C)C)C(=O)N2c1ccccc1 (stereo in doubt) |  |  |  |  |  |  |  |  | Inactive
CO[C@@H]1C=C[C@@H]2[C@H]1N(CC(C)C)C(=O)N2c1ccccc1 (stereo in doubt) |  |  |  |  |  |  |  |  | Active
CO[C@H]1C=C[C@H]2[C@@H]1N(CC(C)C)C(=O)N2c1ccccc1 (stereo in doubt) |  |  |  |  |  |  |  |  | Inactive
CO[C@@H]1C=C[C@@H]2[C@H]1N(CC(C)C)C(=O)N2c1ccc(Cl)cc1 (stereo in doubt) |  |  |  |  |  |  |  |  | Active
CO[C@H]1C=C[C@H]2[C@@H]1N(CC(C)C)C(=O)N2c1ccc(Cl)cc1 (stereo in doubt) |  |  |  |  |  |  |  |  | Inactive
